Experimental data published in patent publication US9889078B2, “Skin and/or hair whitening mixture” (Symrise AG, priority 2013, dated 2018).

System: human full-thickness skin explants
Assay: ex-vivo study of lightening efficacy (melanin content) in human full-thickness skin explants
Format: cell-based
Conditions: for Melanin reduction: Reduction vs. Standard (%): treatments versus placebo at day 6, phototype tanned
Experimental: To evaluate the lightening efficacy of the test products an ex-vivo study using human full-thickness skin explants was performed. […] 1,2-Pentandiol was added to some of the blends to improve the penetration of the active ingredients into the skin layers.

CC(C)=CCC[C@](C)(O)C1CC=C(C)CC1 (some centres unmarked) [Example C4, Bisabolol]
Melanin reduction: Reduction vs. Standard (%): 0%

CC(c1ccccc1)c1ccc(O)cc1O (centres unmarked) [Example C2, Phenylethyl Resorcinol]
Melanin reduction: Reduction vs. Standard (%): −13%

CC(C)=CCC[C@@](C)(O)[C@@H]1CC=C(C)CC1 [Bisabolol]
efficacy (melanin decrease) (0.08% Bisabolol alone, ex vivo model, tanned phototype): did not have any efficacy

CC(c1ccccc1)c1ccc(O)cc1O (centres unmarked) [Pheneylethyl Resorcinol, Phenylethyl Resorcinol]
melanin decrease (0.4% Phenylethyl Resorcinol alone, tanned phototype): 21%

CC(c1ccccc1)c1ccc(O)cc1O (centres unmarked) [Example C3, Phenylethyl Resorcinol]
Melanin reduction: Reduction vs. Standard (%): −21%
